Results published in article PMC9693223 (Molecules, 2022).

What was measured:
[1] = system: L. mexicana Cas9 promastigotes; assay: Alamar blue drug sensitivity assay, L. mexicana Cas9 promastigotes; type: cell-based, Leishmania mexicana; conditions: Leishmania mexicana, 120 h, 72 h + 48 h resazurin, at least 3 independent determinations, read-out: EC50 (µM) AVG ± SEM, Cas9
In short: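 Promastigotes cultured in HOMEM with 10% FBS at 25 °C were added as a 2 × 10^6 cells mL^−1 culture to 23-point compound dilutions. After 72 h at 25 °C, resazurin was added for a further 48 h, and fluorescence was read at ex 544/em 620 nm. EC50 came from a variable-slope sigmoid fit (3–4 independent experiments).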

[2] = system: L. mexicana Cas9^ΔNT1+TcrNT2 promastigotes; assay: Alamar blue drug sensitivity assay, L. mexicana Cas9^ΔNT1+TcrNT2 promastigotes; type: cell-based, Leishmania mexicana; conditions: Cas9^ΔNT1+TcrNT2 in comparison to L. mexicana Cas9^ΔNT1
Excerpt: We used L. mexicana promastigotes of the Cas9 strain developed by Beneke at al. to generate the ΔNT1 strain, and from there the Cas9^ΔNT1+TcrNT2 (see below); The original Cas9 strain was generously donated by Prof. Eva Gluenz (University of Bern, Switzerland). All strains in standard HOMEM (GIBCO, Life Technologies, Paisley, UK) supplemented with 10% heat-inactivated fetal bovine serum (FBS; PAA Laboratories, Linz, Austria) and 1% of a penicillin–streptomycin solution (10,000 U mL^−1 each; Life Technologies) at 25 °C, as described.
The Alamar blue assay (resazurin sodium salt) was used to determine the drug sensitivity of the L. mexicana promastigotes in vitro. The assay is based on the reduction of resazurin sodium salt (blue and non-fluorescent) to resorufin (pink color and fluorescent) by live cells. HOMEM medium with 10% FBS (100 μL) was added to all wells of a white 96-well plate apart from the first well. 200 μL of a known concentration of test compounds was diluted in HOMEM medium and placed in the first well. Compounds were tested in one plate and every compound was diluted over two rows (23 concentrations), leaving the last well of every dilution as a negative control having 100 μL HOMEM medium. Next, 100 μL of L. mexicana culture at a density of 2 × 10^6 cells mL^−1 was added into every well in the plate and incubated for 72 h at a temperature of 25 °C after which resazurin sodium salt (Sigma) (20 μL of a solution of 12.5 mg in 100 mL PBS) was added and the plate was incubated under the same conditions for a further 48 h. Fluorescence was measured in a FLUOstar OPTIMA plate reader (BMG Labtech, Germany), at a wavelength of 544 nm for excitation and 620 nm for emission. The EC50 values and fluorescence data were determined and plotted by the GraphPad Prism 8 Software using an equation for a sigmoid curve with variable slope. Pentamidine was used as positive control and every experiment was performed 3–4 times independently.

TcrNT2 = TcrNT2 (Trypanosoma cruzi, UniProt Q4DHG0); assay: Transport of [^3H]-thymidine by TcrNT2 expressed in L. mexicana Cas9^ΔNT1 (Km, inhibition); type: cell-based
Chain of TcrNT2 (Q4DHG0 entry or part of it): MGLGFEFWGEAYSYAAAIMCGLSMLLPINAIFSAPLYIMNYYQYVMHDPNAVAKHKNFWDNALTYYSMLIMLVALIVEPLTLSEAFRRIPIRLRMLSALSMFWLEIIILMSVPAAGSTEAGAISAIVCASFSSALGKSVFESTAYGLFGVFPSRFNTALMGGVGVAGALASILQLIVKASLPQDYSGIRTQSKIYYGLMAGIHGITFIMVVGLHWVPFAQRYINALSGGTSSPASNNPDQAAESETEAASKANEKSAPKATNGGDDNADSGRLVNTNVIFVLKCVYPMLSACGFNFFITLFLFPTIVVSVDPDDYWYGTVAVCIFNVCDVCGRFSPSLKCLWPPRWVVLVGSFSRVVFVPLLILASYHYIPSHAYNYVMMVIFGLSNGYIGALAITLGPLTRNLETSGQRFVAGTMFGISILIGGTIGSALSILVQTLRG
Method: These values can be used to calculate the Gibbs free energy of interaction ΔG°, but these experiments cannot distinguish between the test compound being transported or merely binding to the transporter and inhibiting the transit of the [^3H]-thymidine.
Transport assays were conducted with radiolabeled nucleosides [methyl-^3H]-thymidine (20 Ci/mmol; PerkinElmer (Waltham, MA, USA)) and [2,8-^3H]-adenosine (40 Ci/mmol; American Radiolabeled Chemicals (ARC, St-Louis, MO, USA)). Cells were harvested from mid-log phase cultures by centrifugation and washed into an assay buffer (AB) as described, at a density of 1 × 10^8 cells mL^−1. Transport assays were then performed exactly as described previously, using an oil-stop protocol. Briefly, 100 µL of cell suspension (10^7 cells) was mixed with 100 µL of [^3H]-substrate at 2 × final concentration and incubated for a pre-set time prior to the addition of 800 µL of ice-cold AB containing a saturating concentration of unlabeled permeant (usually 1 or 2.5 mM) and immediate centrifugation through an oil layer to separate cells from extracellular radiolabel. The 100 µL of [^3H]-substrate could also contain unlabeled substrate or an inhibitor at 2 × concentration, as appropriate. Next, the microfuge tubes were flash frozen in liquid nitrogen; the tips with the cell pellets cut off and collected in scintillation tubes. Cells were solubilized by incubation in 2% SDS under gentle shaking on a rocking platform prior to the addition of scintillation fluid (Scintilogic U, Lablogic, Sheffield, UK). The tubes stored in the dark overnight before counting in a 300SL Hidex Scintillation Counter (Lablogic).
Michaelis-Menten constants (Km) were calculated by plotting transport rates of [^3H]-substrate against the concentration, using the Michaelis-Menten equation V0 = Vmax([substrate]/([substrate] + Km)) and non-linear regression in GraphPad Prism 8. Inhibition constants (Ki) were calculated using the Cheng-Prusoff equation: Ki = IC50/(1 + (L/Km)), where L represents the radiolabel concentration. The IC50 was obtained by a non-linear regression of the inhibition curve of transport rate versus inhibitor concentration, using an equation for a sigmoid curve with variable slope (GraphPad Prism 8). The Gibbs free energy ΔG° was obtained using the equation ΔG° = −RTln(Ki), in which R is the gas constant and T is the absolute temperature. As discussed previously, these equations apply to competitive rather than non-competitive inhibition. Given that only close analogues of the substrate were used as potential inhibitors and that Hill slopes were consistently close to −1, it is very likely that inhibition was indeed competitive.

Leishmania major = system: Leishmania major; parameters: method as in PMID 28453984; conditions: ref [36]; read-out: EC50 against Leishmania major; cited from earlier work
L. mexicana = system: L. mexicana; parameters: method as in PMID 28453984; conditions: ref [36]; read-out: EC50 against L. mexicana; cited from earlier work
[3] = system: bloodstream form T. brucei; parameters: method as in PMID 23188714, PMID 23505454; conditions: ref [47],[54]; read-out: EC50 against bloodstream form T. brucei; cited from earlier work

O=c1[nH]c(=O)n([C@H]2C[C@H](O)[C@@H](CO)O2)cc1F [5-F-2′-dUrd, 5-F-2′-deoxyuridine]
EC50 [1]: 2.19 ± 0.11 µM | RF vs. ΔNT1 (resistance factor) [2]: 14.8 | ΔG° (Gibbs free energy of interaction) (TcrNT2; calculated from Km or Ki at 25 °C): -7.93 kcal/mol | δ(ΔG°) with respect to ΔG° of thymidine (TcrNT2; change in ΔG° relative to thymidine): -1.03 kcal/mol | Ki (TcrNT2; read-out: Ki on the transport of [^3H]-thymidine by TcrNT2): 1500 ± 120 nM | EC50 (Leishmania major): 1400 nM | EC50 (L. mexicana): 1700 nM | EC50 [3]: 5200 nM
